From patent US9969755B2, “Photodynamic therapy photosensitizers” (The Royal Institution for the Advancement of …, priority 2016, dated 2018)
Converted amounts (≈) assume the structure as drawn.

Tests used:
[1] = Electrochemical studies (cyclic voltammetry); assay type: physicochemical; set-up: E^oB^+·/B (reversible oxidation potential): unit not given here; details: vs ferrocene, acetonitrile
Protocol: Electrochemical measurements were performed using a three-electrode system. The working electrode was a Pt wire, a Pt mesh wire was used as the counter electrode, and a Ag/AgCl electrode was used as the reference. A 0.1 M solution of tetrabutylammonium hexafluorophosphate in dry acetonitrile was used as the electrolyte solvent in which the compounds were dissolved to 1 mM or to saturation when the latter occurred before reaching a 1 mM concentration. Concentration was determined from their absorption and calculated extinction coefficient. Solutions also contained ferrocene with a concentration of 1 mM as an internal standard. The solutions were equilibrated with argon, and all measurements were conducted under inert atmosphere, with a minimum scan rate of 0.2 V s^−1. When the acquired cyclic voltammograms were not reversible the scan rate was increased up to 1 V s^−1. Formal redox potentials were calculated from the midpoint of the cathodic and anodic peak potentials observed in the cyclic voltammograms. All values were reported vs ferrocene, with the oxidation of ferrocene measured and corrected to zero for all experiments.

[2] = ^1O2 quantum yield, photooxidation of DMA (indirect method); assay type: physicochemical; details: consumption of dimethylanthracene, Rose Bengal standard, air equilibrated acetonitrile
Protocol: Solutions of 9,10-dimethylanthracene (DMA, 50 μM) and photosensitizers (compound 3-10) in air equilibrated acetonitrile were irradiated in 10 mm path length quartz cell (3 ml) with a Nd:Yag laser exciting at 532 nm. Laser excitation was performed at 10 Hz, providing one laser output for every discharge of the flashlamp. An irradiation time of 1 s is equivalent to 10 laser pulses. The energy of each pulse was 10 mJ. The kinetics of DMA photooxidation were studied by following the decrease of the absorbance at λ=377 nm. The observed rate constant (kobs) was obtained by a linear least-squares fit of the semilogarithmic plot of ln [DMA]0/[DMA] (see FIG. 14). Quantum yields of ^1O2 production (φΔ^I) were calculated comparing the kobs=kq [^1O2] for the corresponding photosensitizer with that for Rose Bengal, which was used as a reference (φΔ=0.54).^1 Measurements of the sample and the reference under the same conditions afforded φΔ^I for compounds (3-10) by direct comparison of the slope in the linear region of the plots.
For the indirect detection of ^1O2, it is possible to determine the kq value considering that the production of ^1O2 is constant compare with the initial concentration of DMA. According to these, a pseudo first-order kinetic for this reaction is proposed (equations 2 to 5): […]
The conversion of DMA followed pseudo-first order kinetics with the different photosensitizers (see FIG. 14). From equation 5, it was possible to determine kobs and ^1O2.

[3] = Phosphorescence studies at 77 K; assay type: physicochemical; set-up: unit not given beside the values; details: from phosphorescence emission spectra, 4:1 EtOH:MeOH
Protocol: Phosphorescence from compounds 3-6 was observed cooling a 4:1 EtOH:MeOH solution to 77 K with liquid nitrogen. Dilute sample solutions (Abs<0.1) were prepared in NMR tubes and suspended in a coldfinger Dewar (custom-made by Ace Glass) filled with liquid nitrogen.

[4] = system: clinical biofilm-producing methicillin-resistant Staphylococcus aureus (MRSA); assay: Photodynamic inactivation of MRSA with ciprofloxacin as stressor; assay type: cell-based
Description: The strain was a clinical biofilm-producing methicillin-resistant Staphylococcus aureus (MRSA). […] Samples “without exposure to light” were kept wrapped with aluminum foil. Samples “with exposure to light” were irradiated with a LED panel having the following characteristics: 1.6 mW/cm^2 power output with a maxima (centered) at 520 nm and a full width at half maximum (FWHM) of 31 nm. The LED panel consisted of 5 lamps and was placed 10 cm from the sample.

[5] = Autocatalytic activation of compound 7 (monitoring fluorescence); assay type: physicochemical
Protocol: The increase in the fluorescence emission due to autocatalytic activation of compound 7 was followed by continuous irradiation at 532 nm and 1.6 mW/cm^2 in air equilibrated acetonitrile using a PTI QuantaMaster spectrofluorimeter. The emission at 557 nm was measured as a function of the irradiation time. Samples were prepared as described above (see Autocatalytic Activation of Compound 7 (Monitoring ^1O2 Phosphorescence)).

E. coli ATCC 25922 = assay: Photodynamic minimal inhibitory concentration (PD-MIC); assay type: cell-based; details: Escherichia coli
Protocol: The microorganism used for this study is E. coli ATCC 25922. Stock cultures were preserved at −70° C. using glycerol 10% (v/v) as the cryoprotectant, and the strain was grown in Luria Bertania broth (LB). Bacterial culture was prepared inoculating a single colony from a pure culture. After overnight incubation at 37° C. for 18 h, the culture reached a density of approximately 1×10^9 CFU/mL and it was diluted to 10^6 CFU/mL.
We carried out PDI in vitro studies with E. coli. Cells (10^6 CFU/mL) were incubated with 2-fold diluted solutions of compounds 7 and 9 (activated form of 7) in buffer PBS and LB at a proportion of 70:30% (v/v), to obtain concentrations between 40-0.078 μM. Stock solutions of BODIPY 7 and 9 (400 μM) were prepared in acetonitrile. […] PD-MIC was 40 μM for compounds 7 and 9 in dark conditions. Under light irradiation the PD-MIC was 40 μM and 10 μM for 7 and 9 respectively.

[6] = Activation of compounds 7 and 8 with dicumyl peroxide (cumyloxyl radicals); assay type: physicochemical; details: 9 with respect to 7; reaction with cumyloxyl radicals/ROS, 1 equivalent sacrificial PMHC
Protocol: Compounds 7 and 8 were oxidized/activated in air equilibrated acetonitrile solution upon photolysis of a 100 μM dicumyl peroxide. Irradiation was performed within a fluorimeter to generate ROS upon exciting with ultraviolet light at 263 nm (2.4 mW/cm^2). The fluorescence intensity at the emission maxima of the probes was monitored over time.
Activation of the dormant photosensitizer 7 or 8 (deactivation of PeT) following their reaction with ROS was subsequently tested in the presence of alkoxyl radicals. These ROS were generated at a constant rate upon photolysis at 263 nm of an air equilibrated 100 μM dicumyl peroxide solution in acetonitrile. We followed over time the increase in fluorescence intensity (drop in PeT) to monitor the extent of activation, see FIG. 16. Activation was complete once the intensity reached a plateau.^28,45 At this point, the trap segment in 7 and 8 reacted to completion with alkoxyl radicals to generate 9 and 10, respectively. […] Deactivation of PeT in the singlet excited state in turn manifested in the ca. 7-fold and 2-fold emission enhancements recorded for 9 vs 7, and 10 vs 8, respectively (FIG. 16).

Compound | E^oB^+·/B (reversible oxidation potential) [1] | E^opc (cathodic peak potential) [1] | ΦΔ^I (singlet oxygen quantum yield, indirect) [2] | E (Triplet), energy of the lowest triplet state [3] | colony forming units upon prolonged illumination, single agent ([4]; light 0 to 60 minutes, 1.6 mW/cm^2, 520 nm, ciprofloxacin 1 microgram per milliliter only or Br2B-PMHC 10 micromolar only) | colony forming units upon illumination in the presence of ciprofloxacin ([4]; light, 1 microgram per milliliter ciprofloxacin and 5 or 10 micromolar Br2B-PMHC) | fraction of 7 pre-oxidized during sample preparation [5] | Fluorescence intensity enhancements ([5]; 0.12 μM sacrificial PMHC, continuous irradiation at 532 nm) [fold] | k, apparent second order rate constant for autocatalytic activation ([5]; fit to equation 9, different conditions) [M⁻¹ s⁻¹] | MIC (E. coli ATCC 25922; ATCC25922, light or radiation study, under light irradiation) [µM] | MIC (E. coli ATCC 25922; ATCC25922, dark conditions) [µM] | enhancement in φΔ^D (^1O2 production) on activation [6] [fold]
CC(=O)OCC1=C2C(C)=C(Br)C(C)=[N+]2[B-](F)(F)n2c(C)c(Br)c(C)c21 [Compound 6, 8-Acetoxymethyl-2,6-dibromo-1,3,5,7-tetramethyl Pyrromethene Fluoroborate] | 0.94 | −1.13 | 0.79 ± 0.02 | 1.53 | – | – | – | – | – | – | – | –
CC1=C(I)C(C)=[N+]2C1=C(C)c1c(C)c(I)c(C)n1[B-]2(F)F [Compound 3, 2,6-diiodo-1,3,5,7,8-pentamethyl-pyrromethene fluoroborate] | 0.88 | – | 0.75 ± 0.04 | 1.70 | – | – | – | – | – | – | – | –
CC(=O)OCC1=C2C(C)=C(I)C(C)=[N+]2[B-](F)(F)n2c(C)c(I)c(C)c21 [Compound 5, 8-Acetoxymethyl-2,6-diiodo-1,3,5,7-tetramethyl Pyrromethene Fluoroborate] | 0.91 | −1.14 | 0.95 ± 0.03 | 1.54 | – | – | – | – | – | – | – | –
CC1=C(Br)C(C)=[N+]2C1=C(CC1(C)CCc3c(C)c(O)c(C)c(C)c3O1)c1c(C)c(Br)c(C)n1[B-]2(F)F (stereo not shown) [Compound 7, 8-((6-Hydroxy-2,5,7,8-tetramethylchroman-2-yl)-methyl)-2,6-dibromo-1,3,5,7-tetramethyl] | – | – | – | – | no observed reduction in colony forming units | clear reduction in colony forming units | less than 5% | ~30 | ~133 | 40 (≈ 25 µg/mL) | 40 (≈ 25 µg/mL) | ~40
CC1=C(Br)C(C)=[N+]2C1=C(C)c1c(C)c(Br)c(C)n1[B-]2(F)F [Compound 4, 2,6-dibromo-1,3,5,7,8-pentamethyl-pyrromethene fluoroborate] | 0.89 | – | 0.64 ± 0.03 | 1.71 | – | – | – | – | – | – | – | –
